Laboratory results published in patent publication US12403106B2, “Prophylactic skin treatment for radiation therapy” (THE BOARD OF TRUSTEES OF THE LELAND STANFORD JUNIOR …, priority 2019, dated 2025).

Columns and labels:
irradiated scalp = test: Laser Doppler analysis of perfusion of irradiated scalp, DFO injection (Example 1); format: in vivo, mice; conditions: mean±SE
Description: (§1) Adult 60-day-old male Cr1:NU-Fox1NU immunocompromised mice were used for experiments in this study. Twelve mice were treated with a total of 30 Gy external beam radiation, delivered as six fractionated doses of 5 Gy each over 12 days, followed by 5 weeks of recovery. An additional six non-irradiated mice were used as healthy controls for laser Doppler analysis (LDA) and skin analysis. Irradiated mice were divided into two treatment groups: a DFO experimental group and saline control group. Following recovery, mice underwent injection of either DFO (1 mg in 100 μl saline) or 100 μl of saline alone beneath the dermis every other day for a total of seven treatments.
Laser Doppler Analysis (“LDA”) was performed to measure perfusion at the irradiated site using a Perimed PIM 3 laser Doppler perfusion imager (Datavagen, Sweden). The signal generated by the LDA, laser Doppler perfusion index (LDPI), was used for comparative purposes. LDPI is a product of the blood cell velocity and concentration and is represented by a color spectrum, with black/dark blue representing low perfusion and red representing high perfusion. LDA was performed prior to irradiation, following completion of irradiation and recovery, and then twenty-four hours following each treatment with DFO or saline. […]
Five images were taken of each mouse, and the average LDPI of the five images was recorded. […]

fat grafts = test: Fat graft volume retention by micro-CT in DFO preconditioned irradiated scalp (Example 1); format: in vivo; conditions: DFO preconditioned irradiated mice, mean±SE
Description: as §1
After irradiation, fat grafting was performed on the irradiated mice. After informed consent was obtained, lipoaspirate was obtained from three healthy donors, with no other medical co-morbidities under an approved IRB protocol #2188.
Lipoaspirate was allowed to settle for 15 minutes for layers to separate by gravity sedimentation, and then oil and blood layers were removed by vacuum aspiration. The remaining fat layer was centrifuged at 1300 ref for 3 minutes at 4° C. Any remaining oil and blood was again removed and the remaining fat was transferred into lee syringes for injection through a 14-gauge needle. Fat grafting was performed beneath the scalp by creating a subcutaneous tunnel with the needle and then injecting […] of lipoaspirate in retrograde fashion while pulling the needle out.
Mice were also imaged using a MicroCAT-11 in vivo X-Ray micro-CT scanner (Imtek, Inc.; Knoxville, Tenn.) two days after fat graft injection for baseline volume measurements. Fat graft volume retention was then analyzed every two weeks over a total of 8 weeks using microcomputed tomography, and images were reconstructed as three-dimensional surfaces through cubic-spline interpolation. All reconstructions were performed by a single investigator to avoid inter-observer variability.

CC(=O)N(O)CCCCCNC(=O)CCC(=O)N(O)CCCCCNC(=O)CCC(=O)N(O)CCCCCN [DFO, deferoxamine]
laser Doppler perfusion index at the scalp (irradiated scalp; 30 Gy irradiated scalp, 1 mg DFO injected beneath the dermis every other day, after four treatments): 205.08±2.30 LDPI
laser Doppler perfusion index following fat grafting (irradiated scalp; two weeks following injection of fat grafts, DFO preconditioned mice): 86.33±2.00 LDPI
fat graft volume retention (fat grafts; two weeks after fat grafting): 89.24%
fat graft volume retention (fat grafts; week 6 after fat grafting): 73.17%
fat graft volume retention (fat grafts; week 8 after fat grafting): 71.75%
